In patent publication US20240067632A1, “WEE1 Degrading Compounds and Uses Thereof” (Bristol-Myers Squibb Company, priority 2022, published 2024):

Legend:
WEE1 = biological target: T1, WEE1 (Homo sapiens, UniProt P30291+Q96SW2); experiment: WEE1-ePL degradation assay (LentiX-WEE1-ePL-GSPT1-ND cells, InCELL Hunter luminescence, 4 h); format: cell-based; details: 293T-LentiX WEE1-ePL cells; for 293T-LentiX WEE1-ePL Degradation 4 hr (Ymin): lower limit of the fit (0 = luciferase inhibitor, Ymax = DMSO control); for DC50: read-out: 293T-LentiX WEE1-ePL Degradation 4 hr (EC50)
T1 construct: C-terminal ePL-tagged (DiscoverX, Fremont, CA) full-length WEE1 expression construct; expressed in transfected cells; host or cells: LentiX-HEK293T (Invitrogen), lentiviral transduction; co-expressing GSPT1-GN (G576N, lacking the first 158 amino acids)
Procedure, shortened: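 Degradation EC50 was fitted by a four-parameter logistic model, with the upper limit taken from DMSO wells. Luminescence was read with InCELL Hunter reagent after 30 min at room temperature, following a 4 h, 37° C exposure of 2500 cells/well. Cells were LentiX-HEK293T carrying ePL-tagged full-length WEE1, dosed in 10 points (3-fold) from 1 or 10 uM.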

MKN45 cells = experiment: MKN45 cell proliferation assay (Cell-Titer-Glo, 120 h); format: cell-based; details: for EC50: Homo sapiens, MKN-45, 120 h, Cell-Titer-Glo, growth inhibition, read-out: MKN45 Cell Prolif. 120 hr (EC50); for MKN45 Cell Prolif. 120 hr (Ymin-Obs): minimal percent of DMSO control observed in the concentrations tested
Procedure, shortened: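 Cells seeded at 400/well onto pre-printed 10-point half-log dilutions (top 1 or 10 uM, 0.1% DMSO final), in triplicate, and grown 120 h at 37 C. Viability by Cell-Titer-Glo luminescence, blank-subtracted and normalised to DMSO; EC50 from four-parameter logistic fit, with observed minimal % of control recorded as Ymin-obs.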

Structure (SMILES)	293T-LentiX WEE1-ePL Degradation 4 hr (Ymin) (WEE1)	DC50 (WEE1) [nM]	EC50 (MKN45 cells) [nM]	MKN45 Cell Prolif. 120 hr (Ymin-Obs) (MKN45 cells)
Cn1ncc2cc(CN3CC[C@H](Oc4ccc5c(c4)CN(C4CCC(=O)NC4=O)C5=O)C3)ccc21 (stereo partly drawn) [3-(5-{[(3S)-1-[(1-methyl-1H-indazol-5-yl)methyl]pyrrolidin-3-yl]oxy}-1-oxo-2,3-dihydro-1H-isoindol-2-yl)piperidine-2,6-dione]	61	68.8	> 10000	86.69
Cc1nc(CN2CC[C@H](Oc3ccc4c(c3)CN(C3CCC(=O)NC3=O)C4=O)C2)cc2ccccc12 (stereo partly drawn) [3-(5-{[(3S)-1-[(1-methylisoquinolin-3-yl)methyl]pyrrolidin-3-yl]oxy}-1-oxo-2,3-dihydro-1H-isoindol-2-yl)piperidine-2,6-dione]	47.56	31	5040	50.77
O=C1CCC(N2Cc3cc(O[C@H]4CCN(Cc5cc6ccncc6cn5)C4)ccc3C2=O)C(=O)N1 (stereo partly drawn) [3-(5-{[(3S)-1-[(2,7-naphthyridin-3-yl)methyl]pyrrolidin-3-yl]oxy}-1-oxo-2,3-dihydro-1H-isoindol-2-yl)piperidine-2,6-dione]	28.095	19.3	98.8	6.92
Cc1ccc2cc(CN3CC[C@H](Oc4ccc5c(c4)CN(C4CCC(=O)NC4=O)C5=O)C3)cc(C)c2n1 (stereo partly drawn) [3-(5-{[(3S)-1-[(2,8-dimethylquinolin-6-yl)methyl]pyrrolidin-3-yl]oxy}-1-oxo-2,3-dihydro-1H-isoindol-2-yl)piperidine-2,6-dione]	29.33	6.44	55.5	13.61
CCc1ccc2cc(CN3CC[C@H](Oc4ccc5c(c4)CN(C4CCC(=O)NC4=O)C5=O)C3)ccc2n1 (stereo partly drawn) [3-(5-{[(3S)-1-[(2-ethylquinolin-6-yl)methyl]pyrrolidin-3-yl]oxy}-1-oxo-2,3-dihydro-1H-isoindol-2-yl)piperidine-2,6-dione]	27	3.02	25.2	12.49
C#Cc1ccc2cc(CN3CC[C@H](Oc4ccc5c(c4)CN(C4CCC(=O)NC4=O)C5=O)C3)ccc2n1 (stereo partly drawn) [3-(5-{[(3S)-1-[(2-ethynylquinolin-6-yl)methyl]pyrrolidin-3-yl]oxy}-1-oxo-2,3-dihydro-1H-isoindol-2-yl)piperidine-2,6-dione]	32	3.14	260	6.523
COc1ncc2cc(CN3CC[C@H](Oc4ccc5c(c4)CN(C4CCC(=O)NC4=O)C5=O)C3)ccc2n1 (stereo partly drawn) [3-(5-{[(3S)-1-[(2-methoxyquinazolin-6-yl)methyl]pyrrolidin-3-yl]oxy}-1-oxo-2,3-dihydro-1H-isoindol-2-yl)piperidine-2,6-dione]	37	8.05	22.3	8.47
Cn1cc2cc(CN3CC[C@H](Oc4ccc5c(c4)CN(C4CCC(=O)NC4=O)C5=O)C3)ccc2n1 (stereo partly drawn) [3-(5-{[(3S)-1-[(2-methyl-2H-indazol-5-yl)methyl]pyrrolidin-3-yl]oxy}-1-oxo-2,3-dihydro-1H-isoindol-2-yl)piperidine-2,6-dione]	52	40.5	> 10000	81.985
Cc1ncc2cc(CN3CC[C@H](Oc4ccc5c(c4)CN(C4CCC(=O)NC4=O)C5=O)C3)ccc2n1 (stereo partly drawn) [3-(5-{[(3S)-1-[(2-methylquinazolin-6-yl)methyl]pyrrolidin-3-yl]oxy}-1-oxo-2,3-dihydro-1H-isoindol-2-yl)piperidine-2,6-dione]	34.5	29.6	27.1	7.995
Cc1ncc2ccc(CN3CC[C@H](Oc4ccc5c(c4)CN(C4CCC(=O)NC4=O)C5=O)C3)cc2n1 (stereo partly drawn) [3-(5-{[(3S)-1-[(2-methylquinazolin-7-yl)methyl]pyrrolidin-3-yl]oxy}-1-oxo-2,3-dihydro-1H-isoindol-2-yl)piperidine-2,6-dione]	35.02	65.5	365	32.41
Cc1nc2ccccc2cc1CN1CC[C@H](Oc2ccc3c(c2)CN(C2CCC(=O)NC2=O)C3=O)C1 (stereo partly drawn) [3-(5-{[(3S)-1-[(2-methylquinolin-3-yl)methyl]pyrrolidin-3-yl]oxy}-1-oxo-2,3-dihydro-1H-isoindol-2-yl)piperidine-2,6-dione]	34.08	8.04	34.8	11.29
O=C1CCC(N2Cc3cc(O[C@H]4CCN(Cc5ccc6nc(N7CC8(COC8)C7)ncc6c5)C4)ccc3C2=O)C(=O)N1 (stereo partly drawn) [3-(5-{[(3S)-1-[(2-{2-oxa-6-azaspiro[3.3]heptan-6-yl}quinazolin-6-yl)methyl]pyrrolidin-3-yl]oxy}-1-oxo-2,3-dihydro-1H-isoindol-2-yl)piperidine-2,6-dione]	37	35.5	21.8	15.5
O=C1CCC(N2Cc3cc(O[C@H]4CCN(Cc5ccc6nc(N7CC8(COC8)C7)ccc6c5)C4)ccc3C2=O)C(=O)N1 (stereo partly drawn) [3-(5-{[(3S)-1-[(2-{2-oxa-6-azaspiro[3.3]heptan-6-yl}quinolin-6-yl)methyl]pyrrolidin-3-yl]oxy}-1-oxo-2,3-dihydro-1H-isoindol-2-yl)piperidine-2,6-dione]	41.5	7.76	10.7	14.91

Further lines, with some results ahead:

293T-LentiX WEE1-ePL Degradation 4 hr (Ymin) (WEE1)	DC50 (WEE1) [nM]	EC50 (MKN45 cells) [nM]	Structure (SMILES)	MKN45 Cell Prolif. 120 hr (Ymin-Obs) (MKN45 cells)
34.11	39.9	544	O=C1CCC(N2Cc3cc(O[C@H]4CCN(Cc5cc6cnccc6cn5)C4)ccc3C2=O)C(=O)N1 (stereo partly drawn) [3-(5-{[(3S)-1-[(2,6-naphthyridin-3-yl)methyl]pyrrolidin-3-yl]oxy}-1-oxo-2,3-dihydro-1H-isoindol-2-yl)piperidine-2,6-dione]	24.28
29.2	2.82	9.58	O=C1CCC(N2Cc3cc(O[C@H]4CCN(Cc5ccc6nc(Cl)ccc6c5)C4)ccc3C2=O)C(=O)N1 (stereo partly drawn) [3-(5-{[(3S)-1-[(2-chloroquinolin-6-yl)methyl]pyrrolidin-3-yl]oxy}-1-oxo-2,3-dihydro-1H-isoindol-2-yl)piperidine-2,6-dione]	12.57
34.33	2.21	6.03	O=C1CCC(N2Cc3cc(O[C@H]4CCN(Cc5ccc6nc(C7CC7)ccc6c5)C4)ccc3C2=O)C(=O)N1 (stereo partly drawn) [3-(5-{[(3S)-1-[(2-cyclopropylquinolin-6-yl)methyl]pyrrolidin-3-yl]oxy}-1-oxo-2,3-dihydro-1H-isoindol-2-yl)piperidine-2,6-dione]	12.12
45	16.5	70.2	C#Cc1ncc2cc(CN3CC[C@H](Oc4ccc5c(c4)CN(C4CCC(=O)NC4=O)C5=O)C3)ccc2n1 (stereo partly drawn) [3-(5-{[(3S)-1-[(2-ethynylquinazolin-6-yl)methyl]pyrrolidin-3-yl]oxy}-1-oxo-2,3-dihydro-1H-isoindol-2-yl)piperidine-2,6-dione]	28.856
36	6.24	45.2	COc1ccc2cc(CN3CC[C@H](Oc4ccc5c(c4)CN(C4CCC(=O)NC4=O)C5=O)C3)ccc2n1 (stereo partly drawn) [3-(5-{[(3S)-1-[(2-methoxyquinolin-6-yl)methyl]pyrrolidin-3-yl]oxy}-1-oxo-2,3-dihydro-1H-isoindol-2-yl)piperidine-2,6-dione]	19.71
39.18	39.5	663	Cc1cc(CN2CC[C@H](Oc3ccc4c(c3)CN(C3CCC(=O)NC3=O)C4=O)C2)ccn1 (stereo partly drawn) [3-(5-{[(3S)-1-[(2-methylpyridin-4-yl)methyl]pyrrolidin-3-yl]oxy}-1-oxo-2,3-dihydro-1H-isoindol-2-yl)piperidine-2,6-dione]	37.845
30.3	3.81	22.3	Cc1ccc2cc(CN3CC[C@H](Oc4ccc5c(c4)CN(C4CCC(=O)NC4=O)C5=O)C3)ccc2n1 (stereo partly drawn) [3-(5-{[(3S)-1-[(2-methylquinolin-6-yl)methyl]pyrrolidin-3-yl]oxy}-1-oxo-2,3-dihydro-1H-isoindol-2-yl)piperidine-2,6-dione]	13.85
29	2.8	9.2	CC(C)(C)c1ccc2cc(CN3CC[C@H](Oc4ccc5c(c4)CN(C4CCC(=O)NC4=O)C5=O)C3)ccc2n1 (stereo partly drawn) [3-(5-{[(3S)-1-[(2-tert-butylquinolin-6-yl)methyl]pyrrolidin-3-yl]oxy}-1-oxo-2,3-dihydro-1H-isoindol-2-yl)piperidine-2,6-dione]	11.88
